Literature values in article PMC2764006 (Journal of molecular biology, 2009).

Conditions: single-molecule FRET

polyproline
persistence length lp: 44 Å
